In US8609161B2, “Conglutin-gamma as medicament and diet supplement” (Ospedale San Raffaele S.R.L., priority 2008, dated 2013):
Entries after “also recorded” stand apart in the source; their conditions may differ.

Key:
PHAS-1 = PHAS-1 α and β bands, western blot of stimulated C2C12 myotubes; type: cell-based, mouse; conditions: I 100 nM, Cg 0.5 mg/ml, Mf 400 μM
Procedure: (§1) C2C12 myoblasts were cultured at 37° C. in humidified 5% CO2 atmosphere in a growth medium (GM) containing DMEM supplemented with 20% (v/v) FBS (fetal bovine serum), 1% penicillin-streptomycin and 1% L-glutamine. Cell differentiation was initiated by placing 70% confluent cell cultures in DMEM supplemented with 1% HS (horse serum) and antibiotics (DM). To prepare myotube cultures, myoblasts were cultured in DM for 72 hours. Cells used as control (C) were switched back to GM for the duration of the experiment. Other three groups of cells were replaced in GM with the selective addition respectively of insulin (I; 100 nM), conglutin-γ (Cg; 0.5 mg/ml) and metformin (Mf; 400 μM). For each experimental condition cells were lysed at 0, 5, 10, 20 and 30 minutes after the stimuli addition.
(§2) C2C12 myofibers were homogenized in lysis buffer (50 mM Tris/HCl, pH 7.4, 150 mM NaCl, 1% Triton X-100, 1 mM sodium orthovanadate (Na3VO4), 1 mM EDTA, 1 mM PMSF, 1 mg/ml aprotinin, 1 mg/ml leupeptin, 1 mg/ml pepstatin) and shaked for 1 h at 4° C. […]
(§3) The membrane was stripped and re-probed with an antibody to actin or tubulin to confirm equal protein loading per sample. Quantitative measurement of immunoreactive bands was performed by densitometric analysis using the Scion image software (Scion corporation, Frederick, Md., USA).

eIF4E [1] = assay: eIF4E protein, western blot of stimulated C2C12 myotubes; type: cell-based, mouse; conditions: for eIF4E protein concentration increase: I 100 nM
Procedure: as §1
(§4) C2C12 myofibers were homogenized in lysis buffer (50 mM Tris/HCl, pH 7.4, 150 mM NaCl, 1% Triton X-100, 1 mM sodium orthovanadate (Na3VO4), 1 mM EDTA, 1 mM PMSF, 1 mg/ml aprotinin, 1 mg/ml leupeptin, 1 mg/ml pepstatin) and shaked for 1 h at 4° C. Detergent-insoluble material was removed from the cell suspension by centrifugation at 12,000×g for 30 min. Aliquots of 30 µg supernatant proteins from the different samples were resolved by 8% (IRS1, MHC, myogenin and p-CBL), 10% (PI3K p85, AKT1, p-p70 S6K and PKC), 12% (eIF-4E, p-ERK1, p-ERK2, caveolin-3 and flottilin-2) and 15% (PHAS1) SDS-PAGE (Sodium Dodecyl Sulfate—PolyAcrylamide Gel Electrophoresis). Electrophoresed proteins were transferred onto nitrocellulose membranes using a Bio-Rad Mini Trans-Blot system. […]
as §3

myogenin = myogenin content, western blot of stimulated C2C12 myotubes; type: cell-based, mouse; conditions: I 100 nM, Cg 0.5 mg/ml, Mf 400 μM
Procedure: as §1, §2, §3

caveolin-3 = caveolin-3 protein, western blot of stimulated C2C12 myotubes; type: cell-based, mouse; conditions: 30 min / toward the end of the experiment; I 100 nM, Mf 400 μM
Procedure: as §1, §2, §3

PKC = PKC protein, western blot of stimulated C2C12 myotubes; type: cell-based, mouse
Procedure: as §1, §2, §3

IRS-1 = IRS-1 protein content, western blot of stimulated C2C12 myotubes; type: cell-based, mouse; conditions: I 100 nM, Cg 0.5 mg/ml, Mf 400 μM; for IRS-1 activation: 30 min
Procedure: as §1, §4, §3

ERK2 = assay: ERK-2 phosphorylation, western blot of stimulated C2C12 myotubes; type: cell-based, mouse
Procedure: as §1, §4, §3

flottilin-2 = flottilin-2 protein, western blot of stimulated C2C12 myotubes; type: cell-based, mouse
Procedure: as §1, §2, §3

ERK1 = assay: ERK-1 phosphorylation, western blot of stimulated C2C12 myotubes; type: cell-based, mouse
Procedure: as §1, §2, §3

MHC = MHC gene expression (protein content), western blot of stimulated C2C12 myotubes; type: cell-based, mouse; conditions: Cg 0.5 mg/ml
Procedure: as §1, §2, §3

p70S6K [2] = assay: p70S6K phosphorylation, western blot of stimulated C2C12 myotubes; type: cell-based, mouse; conditions: Mf 400 μM; for p70S6K phosphorylation: I 100 nM, Cg 0.5 mg/ml
Procedure: as §1
C2C12 myofibers were homogenized in lysis buffer (50 mM Tris/HCl, pH 7.4, 150 mM NaCl, 1% Triton X-100, 1 mM sodium orthovanadate (Na3VO4), 1 mM EDTA, 1 mM PMSF, 1 mg/ml aprotinin, 1 mg/ml leupeptin, 1 mg/ml pepstatin) and shaked for 1 h at 4° C. Detergent-insoluble material was removed from the cell suspension by centrifugation at 12,000×g for 30 min. Aliquots of 30 µg supernatant proteins from the different samples were resolved by 8% (IRS1, MHC, myogenin and p-CBL), 10% (PI3K p85, AKT1, p-p70 S6K and PKC), 12% (eIF-4E, p-ERK1, p-ERK2, caveolin-3 and flottilin-2) and 15% (PHAS1) SDS-PAGE (Sodium Dodecyl Sulfate—PolyAcrylamide Gel Electrophoresis). Electrophoresed proteins were transferred onto nitrocellulose membranes using a Bio-Rad Mini Trans-Blot system. The blots were blocked with 50 mg/ml non-fat dry milk in 20 mM Tris/HCl, pH 7.4, 100 mM NaCl for 1 h at room temperature and then incubated overnight at 4° C. with respective primary antibodies in 10 mg/ml non-fat dry milk, 20 mM TRIS/HCl pH 7.4 and 100 mM NaCl and 0.3% Tween 20. After several washes the membranes were incubated with species-specific secondary antibodies. Immunoreactive bands were visualized by an enhanced chemiluminescence method (Amersham Pharmacia Biotech, Piscataway, N.J., USA).
as §3

C2C12 myoblasts = assay: Immunofluorescence of MHC-positive myotubes (differentiation, hypertrophy); type: cell-based, mouse; conditions: vs un-stimulated differentiated muscle cells; I 100 nM, Cg 0.5 mg/ml, Mf 400 μM
Procedure: To prepare myotube cultures, myoblasts were cultured in DM for 72 hours. Cells used as control (C) were switched back to GM for the duration of the experiment. […] For each experimental condition cells were lysed at 0, 5, 10, 20 and 30 minutes after the stimuli addition. For immunofluorescence analysis C2C12 myoblasts differentiated as above were stimulated with insulin, conglutin-γ and metformin for 30 minutes. In differentiated cells immunostained with anti-MHC the DAPI stained nuclei per myotube, myotubes length and diameter were determined and expressed as average.

Akt-1 = Akt-1 protein, western blot of stimulated C2C12 myotubes; type: cell-based, mouse
Procedure: as §1, §4, §3

GSK-3 = GSK-3 in gastrocnemius muscle at end of IPGTT; type: in vivo, mouse; conditions: 120 min; conglutin-gamma 120 mg/kg i.p., insulin 0.5 U/kg i.p.
Procedure: (§5) For this protocol C57B1/6 wild type mice were utilized. Intraperitoneal glucose tolerance test (IPGTT) was performed by injecting glucose (2 g/kg body weight) i.p. in three groups of overnight-fasted mice. Thirty minutes before glucose administration, conglutin-gamma (120 mg/kg b.w.) was injected i.p. in the “Conglutin” group of mice. In the “Insulin” group of mice, insulin (0.5 U/kg b.w.) was administered i.p. at the same time of glucose injection (time 0). Blood glucose levels were determined prior (30 and 0 minutes) to injection and 30, 60, 90, and 120 min after injection. Blood samples were obtained from the tail vein and plasmas used to measure glucose concentration by the glucose reflectometer. At the end of the study gastrocnemius muscle was taken. A group of overnight-fasted mice (basal) was sacrificed before the study and gastrocnemius muscle taken. A group of animals that received saline instead of insulin or conglutin-gamma, was used as control (saline).
(§6) Collected gastrocnemius muscle was frozen in liquid nitrogen immediately after excision and then stored at −80° C. A gram of tissue with 1.5 ml of ice cold RIPA buffer was disrupted and homogenized with a dounce homogenizer, maintaining temperature at 4° C. throughout all procedures, then incubated on ice for 30 minutes. The homogenate was transferred to microcentrifuge tubes, centrifugated at 10,000×g for 10 minutes at 4° C. […]

[3] = tested on: insulin receptor beta (IR-beta); assay: IR-beta protein content in gastrocnemius muscle at end of IPGTT; type: in vivo, mouse; conditions: 120 min, with respect to the basal and saline group; conglutin-gamma 120 mg/kg i.p., insulin 0.5 U/kg i.p.
Procedure: as §5, §6

[4] = Intraperitoneal glucose tolerance test (IPGTT), blood glucose; type: in vivo, C57B1/6 wild type mice
Procedure: as §5

ERK1 and ERK2 = ERK1 and ERK2 phosphorylation in gastrocnemius muscle at end of IPGTT; type: in vivo, mouse; conditions: 120 min; conglutin-gamma 120 mg/kg i.p., insulin 0.5 U/kg i.p.
Procedure: as §5, §6

eIF4E [5] = assay: eIF4E protein in gastrocnemius muscle at end of IPGTT; type: in vivo, mouse; conditions: 120 min; conglutin-gamma 120 mg/kg i.p., insulin 0.5 U/kg i.p.
Procedure: as §5, §6

p70S6K [6] = assay: p70S6k phosphorylation in gastrocnemius muscle at end of IPGTT; type: in vivo, mouse; conditions: 120 min; conglutin-gamma 120 mg/kg i.p., insulin 0.5 U/kg i.p.
Procedure: as §5, §6

Cbl = Cbl phosphorylation, western blot of stimulated C2C12 myotubes; type: cell-based, mouse; conditions: 30 min; I 100 nM
Procedure: as §1, §2, §3

AKT1 = AKT1 protein expression in gastrocnemius muscle at end of IPGTT; type: in vivo, mouse; conditions: 120 min, with respect to the untreated muscle; conglutin-gamma 120 mg/kg i.p., insulin 0.5 U/kg i.p.
Procedure: as §5, §6

p85-PI3 kinase = assay: PI3K-p85 subunit, western blot of stimulated C2C12 myotubes; type: cell-based, mouse; conditions: I 100 nM, Cg 0.5 mg/ml
Procedure: as §1, §2, §3

[7] = Mf 400 μM vs insulin and conglutin-γ

Molecule: CN(C)C(=N)N=C(N)N [metformin, Metformin]
- density of PHAS-1 α and β bands in respect to the control (PHAS-1): more increased
- eIF4E activation, in words (eIF4E [1]; Mf 400 μM): not able to exert an activation
- myogenin activation (myogenin): did not exert any effect
- caveolin-3 protein concentration increase (caveolin-3): above 70%
- PKC protein concentration stimulation, in words (PKC; [7]): more than the other two stimuli
- IRS-1 activation (IRS-1): ~76%
- ERK2 activation, in words (ERK2; [7]): higher activation
- flottilin-2 activation, in words (flottilin-2; Mf 400 μM): did not exert any flottilin-2 activation
- ERK1 activation, in words (ERK1; [7]): higher activation
- MHC gene expression, in words (MHC; with respect to un-stimulated differentiated muscle cells, Mf 400 μM): unable to produce the same effect; also recorded: not able to induce the same gene expression
- p70S6K phosphorylation (p70S6K [2]; 30 min): ~32%
- Emax (p70S6K [2]; Mus musculus, C2C12, 10 min, within 10 min, read-out: p70S6K phosphorylation (maximal effect)): ~46%
- fusion index (C2C12 myoblasts): gradually increase
- myotubes diameter (C2C12 myoblasts): gradually increase
- myotubes length (C2C12 myoblasts): gradually increase
- number of nuclei present in MHC positive myotubes (C2C12 myoblasts): gradually increase
- Emax (Akt-1; Mus musculus, C2C12, 5 min, 5 min, Mf 400 μM, read-out: Akt-1 protein concentration change (maximal effect)): ~20%

Molecule: insulin: primary hormone responsible for proteosynthesis control and glucose homeostasis; comparator stimulus
- GSK-3 phosphorylation in muscle (GSK-3): increased
- density of PHAS-1 α and β bands in respect to the control (PHAS-1): more increased
- eIF4E protein concentration increase (eIF4E [1]; 30 min (end of the experiment), Cg 0.5 mg/ml): ~30%
- eIF4E protein concentration increase (eIF4E [1]; persistent from 5 to 20 min): ~45%
- IR-beta protein content in muscle [3]: trend towards IR-beta protein content increment
- myogenin activation (myogenin): overlapping
- caveolin-3 protein concentration increase (caveolin-3): ~34%
- PKC concentration increase (PKC; 20 min, I 100 nM, Cg 0.5 mg/ml): ~32%
- IRS-1 protein content stimulation / activation (IRS-1; 20 min): ~32%
- IRS-1 activation (IRS-1): ~35%
- blood glucose concentration at the end of the study ([4]; 120 min after glucose 2 g/kg i.p., conglutin-gamma 120 mg/kg i.p. at -30 min, insulin 0.5 U/kg i.p. at time 0): ~120 mg/dL
- course of blood glucose decrease during IPGTT ([4]; glucose 2 g/kg i.p., conglutin-gamma 120 mg/kg i.p., insulin 0.5 U/kg i.p.): decreased rapidly
- ERK2 activation (ERK2; 10 min, I 100 nM): ~20%
- ERK2 activation (maximum) (ERK2; 30 min, I 100 nM, Cg 0.5 mg/ml): ~28%
- ERKs phosphorylation in muscle (ERK1 and ERK2): able to increment
- eIF4E activation in muscle (eIF4E [5]): able to increment
- flottilin-2 protein concentration increase (peak) (flottilin-2; 10 min, I 100 nM, Cg 0.5 mg/ml): ~60%
- p70S6k phosphorylation in muscle (p70S6K [6]): increased
- ERK1 activation (peak) (ERK1; 20 min, I 100 nM, Cg 0.5 mg/ml): ~27%
- Cbl phosphorylation (maximal) (Cbl): ~56%
- MHC expression increase (MHC; with respect to the un-stimulated differentiated muscle cells, I 100 nM): ~600%
- p70S6K phosphorylation (p70S6K [2]; 30 min): ~94%
- p70S6K phosphorylation (p70S6K [2]; within 5 min): ~40%
- AKT1 expression in muscle (AKT1): able to increase AKT1 expression
- p85-PI3 kinase activation (p85-PI3 kinase; 30 min (end of the experiment)): ~56%
- p85-PI3 kinase activation (p85-PI3 kinase; within 5 min): ~62%
- fusion index (C2C12 myoblasts): gradually increase
- myotubes diameter (C2C12 myoblasts): gradually increase
- myotubes length (C2C12 myoblasts): gradually increase
- number of nuclei present in MHC positive myotubes (C2C12 myoblasts): gradually increase
- Akt-1 protein concentration change (Akt-1; 20 min, I 100 nM, Cg 0.5 mg/ml, Mf 400 μM): ~13%
- AKT-1 phosphorylation, in words (Akt-1; any time 5-30 min, I 100 nM, Cg 0.5 mg/ml): modest stimulation above basal at any time
